assay: in vitro; conditions: human, hela cells, % viability

SMILES	viability at 28.5 h, 10 µM [%]
Cn1cc(-c2nc(C3COCCN3Cc3ccc(F)cc3)no2)cn1 (stereo not drawn) [CBK305391]	97.7
CSCC(=O)N1CC[C@H](NC(=O)NC2CCCCC2)[C@H]1C(=O)N1CCC[C@@H]1C(N)=O [CBK289265]	124
CC(C)c1ccc(C(C)NC(=O)Cn2cc(C(=O)NC3CCCCC3)ccc2=O)cc1 (stereo not drawn) [CBK286097]	100
Nc1ncc(-c2cc3ccccc3o2)nc1-c1ccc(C=O)cc1 [CBK064126]	91.9
COc1cc(C)ccc1S(=O)(=O)Nc1cc(OC2CCNCC2)c2occc2c1 [CBK074192C]	98.6
CC(C)[C@H](CO)n1c(=O)[nH]c2ncc(-c3cccc(CO)c3)nc21 [CBK065001]	96.1
CCOc1cc(C)c(C(C)C)cc1S(=O)(=O)NCc1ccccn1 [CBK268080]	104
C[C@H](Nc1cncc(-c2cccc(N(C)C)c2)n1)c1ccccc1 [CBK065699]	96.8
Fc1ccccc1CN1CCC(Oc2cncc(OCCN3CCOCC3)n2)C1 (stereo not drawn) [CBK084479]	94.9
CCn1c(=O)n(CC(=O)N2CCCC3CCCCC32)c2cccnc21 (stereo not drawn) [CBK283893]	87.3
CCc1cc2c(=O)c(-c3nc(C)cs3)c(C)oc2cc1OCc1ccc([N+](=O)[O-])cc1 [CBK268305]	101
CCCCn1c(SCC(O)COCc2ccc(OC)c(OC)c2)n[nH]c1=O (stereo not drawn) [CBK296653]	99.3
CC(C)CNc1nc2c(c(=O)n(Cc3ccccc3)c(=O)n2C)n1Cc1ccccc1 [CBK293946]	81.7
CC(=O)Nc1ccc(S(=O)(=O)N2CCCCC2C(=O)O)cc1 (stereo not drawn) [CBK265241]	102
COc1ccc(-c2ccc3c(c2)C(=O)N2CC[C@H](NC(=O)CCC(=O)O)[C@H]2C(=O)N3)cc1 [CBK289331]	84.4
NC(=O)[C@H]1C[C@@H](O)[C@H](O)[C@H]2[C@@H]1S/C(=N\c1ccccc1)N2Cc1cccs1 [CBK288944]	100
O=C(Nc1ccc(-c2ccc(F)cc2)cc1)c1ccc(N2C(=O)CCC2=O)cc1 [CBK285683]	98
O=C(O)C[C@@H]1CCN(C(=O)c2ccco2)C[C@@H]1CC1=NCCc2cc(F)ccc21 [CBK289166]	91.1
Cc1ccc(SCCNS(=O)(=O)c2ccc(C)cc2)cc1 [CBK263564]	108
O=C(/C=C/c1ccc2c(c1)OCO2)NCc1ccc(-c2csnn2)cc1 [CBK149297]	88.1
CC(C)C(NC(=O)c1cc2c([nH]c1=O)CCC2)c1ccc(F)cc1 (stereo not drawn) [CBK281662]	93.4

SMILES	viability at 28.5 h, 10 µM [%]
CCOc1ccc2nc(NS(=O)(=O)c3cccc(C(=O)O)c3)sc2c1 [CBK161137]	102
CC(=O)N/N=C(\C)c1ccc(-n2cnnn2)cc1 [CBK261252]	95.9
Cc1cc(OCCCNCCO)ccc1Cl [CBK262230]	95.4
CCn1c(=O)c(C=Cc2cc(OC)c(O)c(OC)c2)nc2cc(C(=O)O)ccc21 [CBK296701]	85.1
Cc1c(NC(=O)c2ccccc2Cl)c(=O)n(-c2ccccc2)n1C [CBK088068]	105
CCCc1ccc(C(=O)N2CCC(C(=O)c3cccnc3)CC2)o1 [CBK285482]	101
Cc1ccc(C(=O)NCc2ccco2)c(NCc2cccnc2)n1 [CBK076383]	102
CC(=O)NCc1cccc(-c2cc(C(=O)NCC3CN(Cc4ccccc4)CCO3)cnc2-c2ccc(Cl)cc2)c1 (stereo not drawn) [CBK164416T]	88.5
COc1cccc(-c2ccc3c(c2)[nH]c(=O)n3C2CCN(C(=O)c3ccc(C)c(OC)c3)CC2)c1 [CBK153141]	102
CCOC(=O)c1sc(-c2ccc3c(c2)OCO3)nc1O [CBK078565]	97.2
COCC(=O)N(C)C(CO)c1cc(OC)ccc1Br (stereo not drawn) [CBK304780]	88.7
Cc1cc(C)n(-c2ccnc(NCc3cccnc3)n2)n1 [CBK288614]	109
CCc1ccc(CNC(=O)Cn2cnc(-c3ccc(CN4CCC(C)CC4)cc3)c2)cc1 [CBK158710T]	100
FC(F)(F)c1cc(-c2ccccc2)nc2onc(OCCN3CCOCC3)c12 [CBK269392]	90.9
CC(=O)Nc1ccc(S(=O)(=O)c2cc(O)ccc2O)cc1 [CBK261372]	85.9
O=C(O)CNc1ccccc1C(=O)O [CBK260902]	120
N#Cc1ccc(OCC(=O)Nc2ncccn2)cc1 [CBK304578]	85.4
N#Cc1ccc(NCC(=O)Nc2ncn(Cc3cccnc3)n2)cc1 [CBK306343]	94.3
NS(=O)(=O)c1ccc(NC(=S)NNC(=O)C2c3ccccc3Oc3ccccc32)cc1 [CBK267024]	99.2
O=C(NCc1ccc(F)cc1)c1cc(Br)cnc1N1CCOCC1 [CBK076246]	89.1
CCn1cc(-c2cncn2CCCn2ccnc2C(C)C)cn1 [CBK282244]	89.4

SMILES	viability at 28.5 h, 10 µM [%]
COc1ccc(OCc2nc(C)cc(=O)n2CC(=O)NC(C)C)cc1 [CBK300525]	99
O=C(Nc1ccc2[nH]ccc2c1)c1ccccc1Nc1cccc(C(F)(F)F)c1 [CBK149583]	105
CN(C)CCNC(=O)c1cc(-c2ccc(Cl)cc2)on1 [CBK116711T]	89.7
CCCC/C=C/c1cnc(N)c(N2CCOCC2)n1 [CBK063398]	98.1
CC12CN3CCN(CC(C3)C1(O)CN1CCOCC1)C2 (stereo not drawn) [CBK263033]	103
Cc1nn(CCNC(=O)C2CC3C=CC2C32CC2)c(C)c1Cl (stereo not drawn) [CBK281429]	90.8
CC(Oc1ccc2c(c1)OCO2)C(=O)N1CCc2sccc2C1c1ccccc1 (stereo not drawn) [CBK285549]	91.9
O=C(NCCN1CCNCC1)c1ccccn1 [CBK278241C]	108
CC1(C)NC(=O)N(CC(O)CN2CCCC2)C1=O (stereo not drawn) [CBK264558]	96.3
Cc1nccn1CCC(=O)NC(c1ccncc1)c1cccs1 (stereo not drawn) [CBK281440]	90.6
C=C(C)CN1CCN(C(C(=O)O)c2c[nH]c3cc(F)ccc23)CC1 (stereo not drawn) [CBK286835]	106
CCOc1ccccc1C(=O)Nc1ccc(O)cc1 [CBK099037]	91.8
C=CCOc1ccc(-c2nn(-c3ccccc3)cc2/C=C2/SC(=S)N(CC(=O)O)C2=O)c(C)c1 [CBK265062]	95.8
Brc1ccc(OCc2ccccc2)c(CNCc2ccccn2)c1 [CBK268340C]	99.9
Cc1c(C(=O)C2=C(O)C(=O)N(CCCN(C)C)C2c2cccnc2)cnn1-c1ccccc1 (stereo not drawn) [CBK269312]	93.8
COc1nn(C)c(CO)c1Cc1c(Cl)cccc1Cl [CBK092285T]	94.2
CCc1nnc2ccc(NCc3ccccc3)nn12 [CBK287888]	110
O=C(Cn1c(-c2cccs2)cc2cccnc21)N1CCC(O)CC1 [CBK282458]	113
COC(=O)[C@@H]1Cc2ncn(C)c2CN1C(=O)c1ccc(C#N)cc1 [CBK288994]	76.5
Cc1cc2ccnc(Cl)c2n1CC1(O)CC2CCC(C1)N2 (stereo not drawn) [CBK284980]	95
Cc1cccc(NS(=O)(=O)c2cc(C(=O)NCc3ccccn3)ccc2C)c1 [CBK268767]	70.7

From PMC12040169 (PLOS Biology, 2025)
